Source: PubChem BioAssay (NCI)
Values joined by “and” are separate entries in the source; they are usually repeats but may differ in a detail not shown here. Equal entries are not always repeated.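 Step 1: Grow cells in 96-well plates. Step 2: Expose to compound for 48 hours at 5 concentrations. Step 3: Interpolate endpoints linearly; if unreached, use highest concentration. Here, GI50 denotes the concentration required for 50% inhibition of growth. At the TGI there is no net growth.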

Tests used:
Assay in all cases: inhibition of tumour cell growth, NCI panel, 48 h
A549 NSCLC = system: A549 NSCLC
COLO 205 colon = system: COLO 205 colon
HOP-62 NSCLC = system: HOP-62 NSCLC
HOP-92 NSCLC = system: HOP-92 NSCLC
MALME-3M melanoma = system: MALME-3M melanoma
MDA-MB-231 breast = system: MDA-MB-231 breast
OVCAR-5 ovarian = system: OVCAR-5 ovarian
SK-MEL-28 melanoma = system: SK-MEL-28 melanoma
SN12C renal = system: SN12C renal
TK-10 renal = system: TK-10 renal

SMILES	GI50 (A549 NSCLC)	TGI (A549 NSCLC)	GI50 (COLO 205 colon)	TGI (COLO 205 colon)	GI50 (HOP-62 NSCLC)	TGI (HOP-62 NSCLC)	GI50 (HOP-92 NSCLC)	TGI (HOP-92 NSCLC)	GI50 (MALME-3M melanoma)	TGI (MALME-3M melanoma)	GI50 (MDA-MB-231 breast)	TGI (MDA-MB-231 breast)	GI50 (OVCAR-5 ovarian)	TGI (OVCAR-5 ovarian)	GI50 (SK-MEL-28 melanoma)	TGI (SK-MEL-28 melanoma)	GI50 (SN12C renal)	TGI (SN12C renal)	GI50 (TK-10 renal)	TGI (TK-10 renal)
O=C(Nc1cnn2ccc(N3CCC[C@@H]3c3cc(F)ccc3F)nc12)N1CC[C@H](O)C1	> 100 µM	> 100 µM	> 100 µM	> 100 µM	> 100 µM	> 100 µM	> 100 µM	> 100 µM	> 100 µM	> 100 µM	> 100 µM	> 100 µM	> 100 µM	> 100 µM	> 100 µM	> 100 µM	> 100 µM	> 100 µM	> 100 µM	> 100 µM
COC(=O)[C@]12CC[C@@H](C)[C@H](C)[C@@H]1C1=CC[C@@H]3[C@@]4(C)C(C=O)=C[C@@](C)(COC(C)=O)[C@@H]4[C@H](O)C[C@@]3(C)[C@]1(C)CC2	3.29 µM	12.3 µM	2.14 µM	4.96 µM	2.74 µM	6.04 µM	1.65 µM	4.28 µM	1.76 µM	3.63 µM	2.27 µM	5.41 µM	2.03 µM	5.6 µM	2.16 µM	4.92 µM	2.3 µM	6.08 µM	2.73 µM	8.77 µM
C/C=C(\C)C(=O)O[C@@H]1C(O)[C@H]2OC(COC(=O)CCC(=O)CCCCCC[C@H](CCCCC)O[C@@H]3OC(C)[C@H](OC(C)=O)C(O)[C@H]3O2)[C@H]1OC(=O)/C=C/c1ccccc1 (stereo not given in full)	< 0.01 µM	32.3 µM	< 0.01 µM	1.79 µM	< 0.0148 µM	7.18 µM	< 0.01 µM	0.415 µM	0.0558 µM	6.48 µM	< 0.01 µM	< 0.0114 µM	2.16 µM	> 64.2 µM	0.021 µM	9.59 µM	0.0101 µM	24.1 µM	0.0235 µM	5.98 µM
COc1cc(/C=C/C(=O)c2cc(F)c(Cl)cc2Cl)cc(OC)c1OC	39.2 µM	> 100 µM	14.7 µM	45.5 µM	82.2 µM	> 100 µM	25.9 µM	> 100 µM	10.8 µM	37.7 µM	15.7 µM	> 100 µM	25.2 µM	> 100 µM	32 µM	> 100 µM	27.7 µM	> 100 µM	31 µM	> 100 µM
COc1cc2c3c(n(CCN)c(=O)c2cc1OC)-c1cc2c(cc1C3=O)OCO2	0.506 µM	> 23.7 µM	0.8 µM	4.4 µM	0.122 µM	0.774 µM	0.82 µM	2.62 µM	0.24 µM	6.12 µM	0.255 µM	0.84 µM	1.95 µM	3.74 µM	1.55 µM	3.44 µM	0.254 µM	1.3 µM	1.79 µM	3.63 µM
COc1cc2cc(Oc3ccc(NC(=O)Nc4ccccc4)cc3)c(C)nc2cc1OCCN1CCCCC1	7.26 µM	18.6 µM	6.25 µM	13.1 µM	5.96 µM	12.9 µM	2.72 µM	7.66 µM	5.96 µM	10.9 µM	6.39 µM	12.1 µM	6 µM	11.5 µM	5.41 µM	9.92 µM	5.15 µM	10.2 µM	8.3 µM	17.3 µM
COc1cc(-c2oc3c(OC)c(OC)cc(O)c3c(=O)c2OC)ccc1O	–	> 50 µM	–	> 100 µM	4.01 µM and 14.7 µM	> 100 µM	2.74 µM and 5.85 µM	9.13 µM and 30.1 µM	–	> 100 µM	–	> 50 µM	–	> 50 µM	> 100 µM and 20 µM	> 100 µM	3.73 µM and 12.4 µM	> 100 µM	–	22.8 µM and 40.2 µM
CCC(=O)OC1CCn2c1nc1c2C(=O)C(C)=C(N2CC2)C1=O (stereo not given)	0.0233 µM	–	0.101 µM	0.235 µM and 0.561 µM	0.0189 µM	0.0431 µM and 0.143 µM	2.61 µM	7.99 µM and 6.33 µM	0.0307 µM	0.0961 µM and 0.114 µM	–	3.32 µM	0.0743 µM	0.589 µM and 0.229 µM	0.0368 µM	0.318 µM and 0.215 µM	0.0285 µM	0.119 µM and 0.333 µM	0.496 µM	–
O=c1cccc(C#Cc2ccccc2)o1	11.1 µM	> 90.9 µM	12.6 µM	> 44.9 µM	4.63 µM	15.4 µM	2.06 µM	13.8 µM	5.09 µM	16.5 µM	6.05 µM	25.8 µM	6.35 µM	16.1 µM	15 µM	40.2 µM	14.5 µM	> 53.2 µM	6.06 µM	22.7 µM
COc1cccc(/C=C/C(=O)c2ccc(Cl)cc2Cl)c1OC	10.4 µM	24.7 µM	5.44 µM	17.4 µM	16.6 µM	30.3 µM	4.35 µM	19.5 µM	13.8 µM	28.2 µM	12.3 µM	27.8 µM	17.1 µM	30.9 µM	14.2 µM	27.4 µM	5.73 µM	19.9 µM	13.5 µM	27 µM
COC(=O)c1ccc(=O)c2nc3/c(=C/O)c(O)cc(=O)c3[nH]c12	0.514 µM	14.3 µM and 45 µM	6.49 µM	> 100 µM	0.461 µM	18.7 µM and 16.2 µM	–	6.03 µM and 11.1 µM	3.16 µM	11.1 µM and 18.6 µM	3.57 µM	19.3 µM and 19.2 µM	3.38 µM	13 µM and 22.4 µM	4.17 µM	19.8 µM and 21.1 µM	0.44 µM	20 µM and 12.8 µM	1.3 µM	21.1 µM and 17.5 µM
Cc1cc(O)c2c(c1)C(=O)c1cc(O)cc(O)c1C2=O	–	> 100 µM	–	42 µM	–	44.3 µM	–	56.8 µM	–	50.6 µM	16.1 µM	57.5 µM	–	> 100 µM	–	> 82.9 µM	–	> 78.9 µM	–	> 81.1 µM
N#CC1C(=N)Cc2ccccc2-c2ccccc21 (stereo not given)	4.58 µM	> 100 µM	3.82 µM	20.9 µM	4.59 µM	56.2 µM	10 µM	36.6 µM	4.2 µM	27.4 µM	8.88 µM	35 µM	9.04 µM	> 100 µM	6.36 µM	30.3 µM	5.55 µM	38.8 µM	20.2 µM	63.6 µM
COc1ccc(/C=C(/C(=O)N2CCCC2)c2cc(OC)c(OC)c(OC)c2)cc1N	4.14 µM	> 100 µM	3.06 µM	11 µM	4.07 µM	> 100 µM	9.92 µM	> 100 µM	4.25 µM	> 100 µM	5.75 µM	> 100 µM	7.63 µM	> 100 µM	5.68 µM	> 100 µM	4.86 µM	> 100 µM	11.1 µM	> 100 µM
O=C(Oc1ccc([N+](=O)[O-])cc1)N1CCN(Cc2cccc(Oc3ccccc3)c2)CC1	> 73.6 µM	> 100 µM	> 83.5 µM	> 100 µM	> 100 µM	> 100 µM	18.2 µM	> 100 µM	> 95.3 µM	> 100 µM	> 100 µM	> 100 µM	> 100 µM	> 100 µM	> 100 µM	> 100 µM	> 100 µM	> 100 µM	> 75.9 µM	> 100 µM
COc1ccc(-c2cnc(-c3ccc(F)cc3)[nH]2)cc1	5.8 µM	16.1 µM	2.2 µM	7.59 µM	8.25 µM	21.4 µM	–	13.1 µM	6.12 µM	22.4 µM	24 µM	> 77.7 µM	12.6 µM	43.9 µM	3.69 µM	8.5 µM	8.34 µM	23.7 µM	2.58 µM	8.81 µM
COc1ccc(C2NCCc3c2[nH]c2ccccc32)cc1CN1CCN(c2ccc(F)cc2)CC1 (stereo not given)	2.9 µM	9.29 µM	1.93 µM	3.65 µM	1.81 µM	3.82 µM	2 µM	5.91 µM	1.88 µM	3.49 µM	1.4 µM	3.36 µM	2.13 µM	5.2 µM	1.61 µM	3.05 µM	3.47 µM	15.5 µM	3.2 µM	9.65 µM
